Patent publication US20140235500A1, “HIGH THROUGHPUT INSTRUMENTATION TO SCREEN CELLS AND PARTICLES BASED ON THEIR MECHANICAL PROPERTIES” (The Regents of the University of California, priority 2011, published 2014)

Experiments:
HL60 cells = experiment: High throughput mechanical screening (HTMS): cell passage through porous membrane under applied pressure; assay type: cell-based, human; conditions: for cell deformability: FIG. 27
Excerpt: An initial prototype device (see, e.g., FIGS. 9-16) was machined out of polymethylmethacrylate (McMaster Carr) in the format of a 96-well plate containing: a porous membrane sandwiched between a bottom, multiwell collection plate, and a top loading plate. A pressure chamber seals the device and interfaces with a compressed air tank (see, e.g., FIG. 17).
In the initial prototype device, we use track-etched, polycarbonate membranes with 5 μm pore size (Millipore). To minimize adhesion, surface treatment with 10 mg/mL bovine serum albumin was performed prior to the experiment. To load the device, cells were deposited on top of the porous membrane in each individual well. The optimal loading density of cells was established iteratively with detection: a loading density of ˜10^6 cells/mL was optimal given the estimated lower detection limit of 10^2 cells/mL using a flow cytometer.
Once the device was loaded, the pressure chamber lid was placed on top to create a pressure-tight seal, and tubing was connected to a tank of compressed air with 5% CO2 that was outfitted with a pressure gauge (0-30 psi, 0.2 psi resolution, Airgas). An electro-pneumatic regulator (0-20 psi output, Omega) enabled precise control of the magnitude and duration of applied pressure for sub-second periods of time via control through LabVIEW. Pressures between 5-10 psi were estimated to generate ˜kPa-scale stresses required to deform cells with elastic moduli in the kPa range.
After applying pressure to induce deformation of cells through the pores, the number of passaged cells was counted. We used a flow cytometer to count cells in the individual wells of a 96-well plate using scattered light (forward versus side scatter) as a signal (LSRII flow cytometer, BD Biosciences). An entire 96-well plate was counted within 15 minutes.
(§1) As shown in FIG. 27 the effect of various anti-cancer drugs (e.g., cytochalisin D, paclitaxel, daunorubicin, colchicine) can readily be detected using the HTMS systems described herein. […] Without being bound by a particular theory, it is believed that that the changes in mechanical properties are produced by the action of the drugs on cytoskeletal elements (e.g., actin filaments). Similarly, as shown in FIG. 28 the HTMS measurements made herein can be used to detect dose-response effects of various agents (e.g., anti-cancer drugs) on cells. In this experiment, HL60 cells were treated with 10.0 μM colchicine. Without being bound by a particular theory it is believed that colchicine perturbs microtubules at low concentrations and stabilizes F-actin at high concentrations.

OVCAR5 cells = experiment: HTMS measurement of drug treatment on ovarian cancer cells; assay type: cell-based; conditions: OVCAR5-CIS+ cells treated for <1 day; 0.4 psi for 35 s; FIG. 32
Excerpt: FIG. 32 illustrates the use of HTMS measurements to detect the effects of drug treatment on cancer cells. Data: 0.4 psi for 35 s.
In addition, the HTMS systems described herein can be used to monitor the progression of drug treatments. Ovarian cancer cells: SKOV3 and OVCAR5 are cisplatin sensitive, while SKOV3-CISR and OVCAR5-CISR are cisplatin resistant.

[1] = system: adherent murine mammary carcinoma cells (67NR); experiment: HTMS measurement on adherent carcinoma cells; assay type: cell-based; conditions: 67NR cells; FIG. 29
Excerpt: FIG. 29 illustrates the effect of various drugs on adherent murine mammary carcinoma cells (67NR).
as §1

[2] = system: human promyelocytic leukemia (HL60) cells; experiment: Flow of cells through constricted microfluidic channels (deformation time); assay type: cell-based; conditions: HL60 cells treated with drug to perturb actin network; narrow constrictions
Excerpt: To dissect the contributions of nuclear physical properties to whole cell deformability, human promyelocytic leukemia (HL60) cells provide a convenient model system. These cells can be readily differentiated into neutrophil-type cells in vitro. During this process of granulopoiesis, the cell nucleus undergoes major changes in morphology as it transitions from an ovoid to an irregular, multi-lobed structure.
In addition to these induced changes in nuclear morphology, cytoskeletal protein expression is also altered. Levels of actin increase during differentiation, and cortical actin is implicated in the resistance of these cells to out-of-plane deformations. To determine the contributions of actin to cellular deformation, cells were treated with a drug (cytochalasin B) to perturb their actin network. […] One determinant of nucleus shape stability is the intermediate filament type protein, lamin A. This protein is a major constituent of the meshwork underlying the nuclear envelope, and its expression levels are directly linked to nuclear mechanical properties.

CC1=C(/C=C/C(C)=C/C=C/C(C)=C/C(=O)O)C(C)(C)CCC1 [ATRA]
pressure dependence of cell passage versus HL60 cells (HL60 cells; neutrophil-type (ATRA-treated) cells, FIG. 25): different pressure dependence

N.N.[Cl][Pt][Cl] [cisplatin]
difference in HTMS measurement compared with OVCAR5 cells (OVCAR5 cells): no apparent difference

COc1cc2c(c(OC)c1OC)-c1ccc(OC)c(=O)cc1[C@@H](NC(C)=O)CC2 [colchicine]
dose response effects on cell mechanical properties [1]: Dose response effects of colchicine are also observed
cell deformability (HL60 cells; HL60 cells, 10.0 μM): decrease the deformability
cell stiffness (dose response) (HL60 cells; HL60 cells, low drug concentration, FIG. 28): increased cell stiffness

C=C1[C@@H](C)[C@H]2[C@H](Cc3ccccc3)NC(=O)[C@]23OC(=O)/C=C/[C@H](O)CCC[C@@H](C)C/C=C/[C@H]3[C@@H]1O [cytochalasin B]
difference in cellular deformation between treated and non-treated controls [2]: no detectable difference

C=C1[C@@H](C)[C@H]2[C@H](Cc3ccccc3)NC(=O)[C@]23[C@H](OC(C)=O)/C=C/[C@@](C)(O)C(=O)[C@@H](C)C/C=C/[C@H]3[C@@H]1O [cytochalasin D]
cell deformability (HL60 cells; HL60 cells, 2.0 μM): increase cell deformability

COc1cccc2c1C(=O)c1c(O)c3c(c(O)c1C2=O)C[C@@](O)(C(C)=O)C[C@@H]3O[C@H]1C[C@H](N)[C@H](O)[C@H](C)O1 [dauorubicin]
cell deformability (HL60 cells; HL60 cells, 1.0 μM): decrease the deformability

CC(=O)O[C@H]1C(=O)[C@@]2(C)[C@H]([C@H](OC(=O)c3ccccc3)[C@]3(O)C[C@H](OC(=O)[C@H](O)[C@@H](NC(=O)c4ccccc4)c4ccccc4)C(C)=C1C3(C)C)[C@]1(OC(C)=O)CO[C@@H]1C[C@@H]2O [paclitaxel]
cell deformability (HL60 cells; HL60 cells, 1.5 μM): increase cell deformability
